In patent US7439251B2, “Methods and compositions for treatment of central and peripheral nervous system disorders and novel compounds useful therefor” (Israel Institute for Biological Research, priority 2002, dated 2008):
“Also recorded” adds a separate entry of the source. Where two headings read alike, the source gives them in different places.

What was measured:
ApoE = ApoE synthesis and secretion in rat primary type 1 astrocytes; format: cell-based; conditions: 96 hrs; 0.1 nM
Method: Primary cultures of type 1 astrocytes were derived from the cortex of Sprague Dawley rats. The compounds tested were dissolved in the culture media and added to cells for 24, 48, 72 and 96 hrs. Media was then removed and kept frozen until ApoE protein levels were evaluated by immunoblot analysis as described in Poirier et al Neuroscience 55: 81-90 (1993).

β-catenin = β-catenin levels in rat hippocampal neurons; format: cell-based; conditions: 100 μM; Aβ1-40 5 μM
Method: (§1) This study was performed in rat hippocampal primary cell cultures using the methods described by Garrido J L et al. (FASEB J 2002; 16:1982).

Aβ / γ-secretase = assay: Aβ levels in primary rat cortical neurons infected with Semliki Forest virus encoding human APP695, C99 or C111; format: cell-based
Method: The mechanism of Aβ modulation was tested using C99 (and C111) that are truncated constructs generated from APP. Unlike APP, C99/C111 are direct substrates for γ-secretase. With both constructs it is possible to directly assay for γ-secretase activity, while with APP this is not possible. Both constructs are—as compared to APP—inefficient substrates for […]. Synergistc effects were also evaluated with CDX (methyl-β-cyclodextrin), an agent which extracts cholesterol from the plasma membrane. CDX inhibits also Aβ production CDX-treated cells were treated in addition to the respective muscarinic agonist for 5 min to reduce the cholesterol content.

[1] = Chronic oral toxicity up to 13 weeks, dog
[2] = Chronic oral toxicity up to 13 weeks, rat; format: in vivo, Wistar rat
[3] = tested on: Adrenergic α1A, α1B, α2A, α2B, α2C, β1, β2; BZD peripheral; Clozapine; Dopamine D1, D2, D3; GABA A; Glutamate sites; Glycine; Histamine H1-H3; Nicotinic …; assay: Selectivity binding panel for AF267B
GSK-3β = GSK-3β activity in rat hippocampal neurons; format: cell-based; conditions: 10 μM with Aβ fibrils 10 μM (fibrils alone 370%)
Method: as §1

[4] = pKa and free base fraction at CSF pH; conditions: pH 7.35 (CSF), calculated from pKa
Method: For such compounds at the relevant pH of 7.35, only 2.2% are in non-ionized form. […] This calculation was based on the brain weight (2 gr) vs. total plasma volume (14 ml).

[5] = Morris water maze in AF64A-injected rats; format: in vivo, rat
Method: AF64A or saline-injected (6 months old) Sprague-Dawley rats were tested in the Morris Water Maze (MWM) task. The paradigm used assesses spatial learning abilities in a reference memory regimen, and involves training (days 1-4), transfer test (Probe trial—day 4, 3 min following the last training trial) and reversal test (day 5).
Drugs and PBS were administered once a day for 5 days before starting the behavioral testing, and then for the duration of the 5-day experiment, 30 min before testing.
The three measures, escape latency, path length and swimming speed were analyzed by MANOVA, followed by simple main effects contrast analysis.

[6] = rat, in vivo, po
Method: This calculation was based on the brain weight (2 gr) vs. total plasma volume (14 ml).

human M3 receptor = biological target: T1, human M3 receptor (Homo sapiens, UniProt P20309); assay: Arachidonic acid (AA) release, human M3; format: cell-based
T1 construct: expressed in transfected cells
T1 sequence (P20309 whole entry): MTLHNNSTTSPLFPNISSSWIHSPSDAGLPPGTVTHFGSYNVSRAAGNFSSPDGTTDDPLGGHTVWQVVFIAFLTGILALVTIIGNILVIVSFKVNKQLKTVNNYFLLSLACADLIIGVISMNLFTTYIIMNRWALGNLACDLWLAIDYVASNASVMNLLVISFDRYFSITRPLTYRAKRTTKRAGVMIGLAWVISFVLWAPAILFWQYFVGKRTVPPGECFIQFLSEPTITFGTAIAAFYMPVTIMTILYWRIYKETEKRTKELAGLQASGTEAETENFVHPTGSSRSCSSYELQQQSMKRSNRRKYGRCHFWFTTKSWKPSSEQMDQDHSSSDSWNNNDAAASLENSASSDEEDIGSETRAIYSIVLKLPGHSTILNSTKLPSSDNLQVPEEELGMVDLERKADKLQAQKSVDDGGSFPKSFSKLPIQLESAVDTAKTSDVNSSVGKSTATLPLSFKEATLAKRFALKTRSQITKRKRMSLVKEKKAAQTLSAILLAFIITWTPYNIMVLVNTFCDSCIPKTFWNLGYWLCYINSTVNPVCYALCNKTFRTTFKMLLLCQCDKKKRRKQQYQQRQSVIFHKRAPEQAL

M2 mAChR = M2 mAChR (Homo sapiens, UniProt P08172); assay: Intracellular Ca ions in modified cell cultures, M2; format: cell-based; conditions: 10^−9-10^−3M
M2 mAChR, sequence (P08172 whole entry): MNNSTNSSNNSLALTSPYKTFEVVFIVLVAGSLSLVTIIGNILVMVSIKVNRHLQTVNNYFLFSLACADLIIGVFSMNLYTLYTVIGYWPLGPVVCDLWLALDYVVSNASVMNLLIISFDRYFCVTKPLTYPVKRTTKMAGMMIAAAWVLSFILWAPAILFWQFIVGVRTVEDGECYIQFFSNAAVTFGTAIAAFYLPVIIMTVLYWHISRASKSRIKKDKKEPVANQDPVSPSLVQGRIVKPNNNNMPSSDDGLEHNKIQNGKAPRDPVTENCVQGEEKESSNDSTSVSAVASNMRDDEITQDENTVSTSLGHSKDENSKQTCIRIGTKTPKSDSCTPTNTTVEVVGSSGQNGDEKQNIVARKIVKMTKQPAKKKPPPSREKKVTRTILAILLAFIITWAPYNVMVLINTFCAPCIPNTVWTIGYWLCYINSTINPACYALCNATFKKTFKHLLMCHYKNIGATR

human M5 receptor [7] = biological target: T2, human M5 receptor (Homo sapiens, UniProt P08912); assay: Arachidonic acid (AA) release, human M5; format: cell-based
T2 construct: expressed in transfected cells
T2 sequence (P08912 whole entry): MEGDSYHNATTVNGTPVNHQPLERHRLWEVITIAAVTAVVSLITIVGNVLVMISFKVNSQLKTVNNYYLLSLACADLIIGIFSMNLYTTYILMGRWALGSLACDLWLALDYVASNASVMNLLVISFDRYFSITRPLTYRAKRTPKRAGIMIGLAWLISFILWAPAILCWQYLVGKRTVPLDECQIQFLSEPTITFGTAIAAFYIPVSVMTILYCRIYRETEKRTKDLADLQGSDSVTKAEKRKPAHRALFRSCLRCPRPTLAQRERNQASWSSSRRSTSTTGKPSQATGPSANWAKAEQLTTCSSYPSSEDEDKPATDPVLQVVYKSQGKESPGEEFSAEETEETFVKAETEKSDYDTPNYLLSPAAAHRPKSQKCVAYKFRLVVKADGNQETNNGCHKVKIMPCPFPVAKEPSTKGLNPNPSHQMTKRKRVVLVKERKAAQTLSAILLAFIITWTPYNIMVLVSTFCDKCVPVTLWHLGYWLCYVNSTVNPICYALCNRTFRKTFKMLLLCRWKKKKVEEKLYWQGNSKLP

[8] = tested on: adenosine A1, A2A, A3; alpha 1, alpha 2, beta 1; AT1; BZD; B2; CCKA; D1, D2S; ETA; GABA; GAL2; IL-8B; CCR1; H1, H2; MC4; ML1; NK2, NK3; Y1, Y2; NT1; opiate …; assay: Selectivity binding panel for AF292; conditions: 10 μM
[9] = Cardiac electrophysiology and haemodynamics in instrumented awake dogs; format: in vivo, Beagle dog; conditions: 5 mg/kg orally, 4 hours
Method: (§2) • 1. Astemizole (human ether-a-go-go related gene (HERG) Channel) Binding Assay. […] Isolated Guinea Pig Right Atrium (atrial fibrillation). […] Effects of AF292 (dose 5 mg/kg orally) on cardiac electrophysiological, cardio-haemodynamic in instrumented, awake dogs. Healthy trained and chronically instrumented female Beagle dogs of varying age and ranging in body weight from 9.4 to 12 kg, were used for recording of the cardiovascular parameters: heart rate, diastolic and systolic blood pressure, pressure rate product, LV dp/dt max, LV dp/dt max/pd, LV dp/dt min, cardiac output, stroke volume, systemic vascular resistance and the ECG parameters (PQ-, QRS-, QT-, QTcBazett—(QTcB), QTcFridericia—(QTcF) and QTcVan de Water—(QTcVdW) interval duration and QT-dispersion. During the last 18 hours prior to the experiments, the dogs had no access to food. Water was available ad libitum. At the beginning of each experiment, control values of the various parameters were recorded for at least 30 min. Thereafter, 5 mg/kg of AF292 (n=4) or the corresponding volume of the solvent (n=4) was administered orally by gavage. The various haemodynamic parameters were recorded continuously for 4 hours thereafter.

[10] = tested on: Isolated Guinea Pig Right Atrium; assay: Isolated guinea pig right atrium
Method: as §2

human M5 receptor [11] = biological target: T2, human M5 receptor; assay: PI hydrolysis, human M5; format: cell-based
CYP1A2 = CYP1A2 (Homo sapiens, UniProt P05177); assay: P450 inhibition, microtiter plate; format: in vitro ADME; conditions: up to 10 μM
CYP1A2, sequence (P05177 whole entry): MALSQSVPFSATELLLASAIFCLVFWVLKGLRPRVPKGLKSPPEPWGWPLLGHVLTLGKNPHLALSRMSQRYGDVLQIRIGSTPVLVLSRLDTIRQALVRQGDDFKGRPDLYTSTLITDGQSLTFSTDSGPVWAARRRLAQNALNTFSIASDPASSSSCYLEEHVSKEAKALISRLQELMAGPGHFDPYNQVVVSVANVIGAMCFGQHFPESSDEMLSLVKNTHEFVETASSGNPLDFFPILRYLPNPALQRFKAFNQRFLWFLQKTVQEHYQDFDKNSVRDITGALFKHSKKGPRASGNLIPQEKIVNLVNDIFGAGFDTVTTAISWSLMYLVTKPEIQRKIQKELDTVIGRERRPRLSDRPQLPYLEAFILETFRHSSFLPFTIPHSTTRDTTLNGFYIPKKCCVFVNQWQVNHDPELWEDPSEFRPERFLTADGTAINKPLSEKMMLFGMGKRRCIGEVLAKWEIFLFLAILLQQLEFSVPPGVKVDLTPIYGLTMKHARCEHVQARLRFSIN
Method: (§3) Cytochrome P450 activity can be an indicator for potential drug-drug interactions. AF292 was evaluated in a microtiter plate assay for P450 inhibition.

CYP3A4 = CYP3A4 (Homo sapiens, UniProt P08684); assay: P450 inhibition, microtiter plate; format: in vitro ADME; conditions: up to 10 μM
CYP3A4, sequence (P08684 whole entry): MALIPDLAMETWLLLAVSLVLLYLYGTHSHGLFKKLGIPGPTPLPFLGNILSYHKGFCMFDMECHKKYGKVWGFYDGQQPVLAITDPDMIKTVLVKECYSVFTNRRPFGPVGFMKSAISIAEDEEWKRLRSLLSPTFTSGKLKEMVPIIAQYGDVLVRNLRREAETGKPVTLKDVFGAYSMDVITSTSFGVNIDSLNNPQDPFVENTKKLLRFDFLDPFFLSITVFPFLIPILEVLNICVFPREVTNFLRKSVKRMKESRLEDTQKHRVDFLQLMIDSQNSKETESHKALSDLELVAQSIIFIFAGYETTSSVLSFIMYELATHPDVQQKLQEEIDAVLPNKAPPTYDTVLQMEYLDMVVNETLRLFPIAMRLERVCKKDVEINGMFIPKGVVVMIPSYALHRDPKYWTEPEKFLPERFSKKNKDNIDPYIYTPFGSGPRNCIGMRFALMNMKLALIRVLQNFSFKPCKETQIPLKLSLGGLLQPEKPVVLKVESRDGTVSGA
Method: as §3

CPY2D6 = CPY2D6 (Homo sapiens, UniProt P10635); assay: P450 inhibition, microtiter plate; format: in vitro ADME; conditions: up to 10 μM
CPY2D6, sequence (P10635 whole entry): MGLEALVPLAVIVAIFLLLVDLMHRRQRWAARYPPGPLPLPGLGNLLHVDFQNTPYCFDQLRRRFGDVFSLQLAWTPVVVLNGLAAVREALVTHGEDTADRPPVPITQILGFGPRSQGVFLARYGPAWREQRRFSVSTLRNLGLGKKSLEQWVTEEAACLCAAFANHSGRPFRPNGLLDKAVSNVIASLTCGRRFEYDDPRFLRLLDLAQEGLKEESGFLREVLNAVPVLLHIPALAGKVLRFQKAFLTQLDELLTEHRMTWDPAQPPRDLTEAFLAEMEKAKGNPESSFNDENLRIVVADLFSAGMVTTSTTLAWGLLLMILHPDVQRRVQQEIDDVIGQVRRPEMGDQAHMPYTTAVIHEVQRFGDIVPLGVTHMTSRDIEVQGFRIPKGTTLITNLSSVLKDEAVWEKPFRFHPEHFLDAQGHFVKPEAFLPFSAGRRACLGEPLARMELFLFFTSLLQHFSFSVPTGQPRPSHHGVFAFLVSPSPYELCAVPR
Method: as §3

CYP2C19 = CYP2C19 (Homo sapiens, UniProt P33261); assay: P450 inhibition, microtiter plate; format: in vitro ADME; conditions: up to 10 μM
CYP2C19, sequence (P33261 whole entry): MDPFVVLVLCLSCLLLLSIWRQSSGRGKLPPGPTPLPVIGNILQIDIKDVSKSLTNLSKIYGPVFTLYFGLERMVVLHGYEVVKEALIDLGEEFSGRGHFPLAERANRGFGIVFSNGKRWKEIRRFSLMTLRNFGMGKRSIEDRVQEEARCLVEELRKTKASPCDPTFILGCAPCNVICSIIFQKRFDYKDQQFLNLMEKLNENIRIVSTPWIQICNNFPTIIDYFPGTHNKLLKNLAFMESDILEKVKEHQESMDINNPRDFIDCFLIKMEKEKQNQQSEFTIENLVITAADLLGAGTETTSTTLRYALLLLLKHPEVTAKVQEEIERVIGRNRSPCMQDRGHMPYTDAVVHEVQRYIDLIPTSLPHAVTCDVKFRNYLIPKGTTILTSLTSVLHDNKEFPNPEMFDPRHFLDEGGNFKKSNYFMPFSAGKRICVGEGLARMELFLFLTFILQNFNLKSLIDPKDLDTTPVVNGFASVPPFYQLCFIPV
Method: as §3

CYP2C9 = CYP2C9 (Homo sapiens, UniProt P11712); assay: P450 inhibition, microtiter plate; format: in vitro ADME; conditions: up to 10 μM
CYP2C9, sequence (P11712 whole entry): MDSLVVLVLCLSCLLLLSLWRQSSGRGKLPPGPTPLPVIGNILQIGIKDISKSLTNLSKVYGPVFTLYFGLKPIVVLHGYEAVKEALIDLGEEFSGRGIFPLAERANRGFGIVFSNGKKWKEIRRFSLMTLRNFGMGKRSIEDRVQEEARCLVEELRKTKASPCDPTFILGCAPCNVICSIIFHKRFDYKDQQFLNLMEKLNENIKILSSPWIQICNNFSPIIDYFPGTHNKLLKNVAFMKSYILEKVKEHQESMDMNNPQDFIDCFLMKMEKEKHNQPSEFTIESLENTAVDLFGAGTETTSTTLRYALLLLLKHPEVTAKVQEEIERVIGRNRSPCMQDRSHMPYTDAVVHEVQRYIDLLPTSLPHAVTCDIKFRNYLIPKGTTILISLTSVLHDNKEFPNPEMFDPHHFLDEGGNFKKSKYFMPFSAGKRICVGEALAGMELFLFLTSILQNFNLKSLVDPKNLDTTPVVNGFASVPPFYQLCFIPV
Method: as §3

SMILES: CC1=NCC2(CCN(C)CC2)S1 [AF150(S), 2,8-Dimethyl-1-thia-3,8-diaza-spiro[4.5]dec-2-ene]
- inhibition of ApoE production (ApoE): to a lesser extent

SMILES: CC[C@@H]1SC2(CCN(C)CC2)NC1=O [AF267B, (S)-2-ethyl-8-methyl-1-thia-4,8-diaza-spiro[4.5]decan-3-one]
- Aβ1-40-induced degradation of soluble β-catenin (β-catenin): prevented
- reduction of the release of Aβ-like fragments (3-4 Kda) (Aβ / γ-secretase): approximately 50%
- p3 fragment (Aβ / γ-secretase; 1 mM, vs control): complete loss
- Aβ with cholesterol lowering agent CDX (Aβ / γ-secretase; with CDX (5 mM)): undetectable Aβ levels
- ECG (heart rate, P wave, P-Q, QRS, QT) ([1]; beagle dogs, oral, up to 13 weeks): no changes in the ECG
- dose at which (muscarinic) effects are seen ([1]; dog): > 9 mg/kg
- no-adverse-effect-level (NOAEL) ([1]; dog, po, up to 13 weeks): 6 to 9 mg/kg/day
- dose at which (muscarinic) effects are seen [2]: > 40 mg/kg
- binding to other receptors and enzymes [3]: no binding at all
- GSK-3β activity vs. control (100%) (GSK-3β): 150%
- % of the compound in free base form [4]: 26.2%
- reversal test ([5]; AF64A rats, 1 mg/kg): tendency for improvement
- training, escape latency ([5]; AF64A rats, 1 mg/kg): tendency for improvement
- reversal test ([5]; AF64A rats, 3 mg/kg): tendency for impairment
- training performance ([5]; AF64A rats, 3 mg/kg): tended to impair performance
- learning (training) ([5]; AF64A rats, 0.3, 1, 3 mg/kg po): no significant effect on learning
- probe trial, escape latency ([5]; AF64A rats, all doses): complete spatial bias
- % of the compound found in the brain (Cmax brain/Cmax plasma) ([6]; female): 16%
- % of the compound found in the brain (Cmax brain/Cmax plasma) ([6]; male): 25%

SMILES: CC[C@@H]1SC2(CCNCC2)NC1=O [AF292, (S)-2-Ethyl-1-thia-4,8-diaza-spiro[4.5]decan-3-one]
- AA release, agonist activity (human M3 receptor): inactive as an agonist
- agonist activity at M2 mAChR (M2 mAChR): inactive as an agonist; also recorded: M2 mAChR - no effects as agonist
- AA release, agonist activity (human M5 receptor [7]): inactive as an agonist; also recorded: PI, AA: M5 mAChR - no effect as agonist
- binding to other receptors, channels and transporter [8]: no binding at all
- hemodynamic or ECG parameters [9]: no statistically significant and relevant effect
- contractile force [10]: no significant effect
- contractile rate ([10]; vs vehicle group): tended to slightly reduce
- PI turnover, agonist activity (human M5 receptor [11]): PI, AA: M5 mAChR - no effect as agonist
- P450 inhibition (CYP1A2): did not induce significant
- P450 inhibition (CYP3A4): did not induce significant
- P450 inhibition (CPY2D6): did not induce significant
- P450 inhibition (CYP2C19): did not induce significant
- P450 inhibition (CYP2C9): did not induce significant
